Test results from US6562837B1, “Use of tetrahydroisoquinoline compounds for the treatment of septicemia” (Korea Institute of Science & Technology, priority 1998, dated 2003).

Columns and labels:
iNOS mRNA = assay: Suppression of LPS-induced iNOS mRNA expression in rat isolated aorta (Northern blot); type: cell-based; details: LPS 300 ng/ml, 8 hours; compound 10, 30 and 100 μM; FIG. 1
Method: Rats were anesthetized with pentobarbital sodium (50 mg/kg) and the aorta was isolated, followed by removing endothelium from the aorta. After being incubated at 37° C. for 8 hours in a Krebs solution containing 300 ng/ml of LPS, the aorta was subjected to total RNA extraction with the aid of a trizol solution (GibcoBRL). After quantification by use of a UV spectrophotometer (Shimadzu, UV-1201), the total RNA obtained was electrophoresed on a formamide-formaldehyde agarose gel and transferred to a nylon membrane. Thereafter, the total RNA on the nylon membrane was hybridized with cDNA probes for iNOS to determine the expression level of iNOS mRNA, in which the cDNA of iNOS was labeled with ^32P-dCTP by a random-primer method. For quantification, an x-ray film was exposed to the radioactive irradiation from the nylon membrane and developed to compare the dot sizes of desired objects with those of GAPDH (glyceraldehyde-3-phosphate dehydrogenase).
When aortic preparations were incubated, in vitro, the blood vessel was cultured, in vitro, in the presence of LPS, iNOS mRNA was transcribed in a large amount. […]

[1] = test system: iNOS mRNA in macrophages (RAW 264.7 cells); assay: Suppression of LPS- and IFN-γ-induced iNOS mRNA expression in macrophage (Northern blot); type: cell-based; details: LPS 100 ng/ml + IFN-γ 10 U/ml, 18 hours, compound 1, 10 and 100 μM, FIG. 2
Method: In a DMEM medium supplemented with thermally treated 10% fetal calf serum, penicillin (100 U/ml) and streptomycin ([…]), macrophages (RAW 264.7 cells) were cultured to be confluent in a CO2 incubator. After being transferred to a serum-free DMEM medium, the cells were cultured for additional 24 hours and then, further for 18 hours in the presence of LPS (100 ng/ml) and interferon-γ (hereinafter referred to as “IFN-γ”; 10 U/ml), and/or the compound of Chemical Formula 2 (0, 1, 10, and 100:μM). Using a trizol solution, the total RNA was extracted from the cultured macrophages. After quantification in a spectrophotometer, the total RNA obtained was electrophoresed on a formamide-formaldehyde agarose gel and transferred to a nylon membrane. Thereafter, the total RNA on the nylon membrane was hybridized with cDNA probes for iNOS to determine the expression level of iNOS mRNA, in which the cDNA of iNOS was labeled with ^32P-dCTP by a random-primer method. For quantification, an x-ray film was exposed to the radioactive irradiation from the nylon membrane and developed to compare the radioactivity level of desired objects with those of GAPDH. […]

Structure (SMILES) | LPS-induced iNOS mRNA expression in isolated rat aorta (iNOS mRNA) | LPS/IFN-γ-induced iNOS mRNA expression in macrophages [1]
Oc1cc2c(cc1O)C(Cc1cccc3ccccc13)NCC2 (stereo not drawn) [Compound 1, 1-α-naphthylmethyl-6,7-dihydroxy-1,2,3,4-tetrahydroisoquinoline] | inhibits the LPS-induced iNOS mRNA expression in a concentration-dependent manner | –
Oc1cc2c(cc1O)C(Cc1ccc3ccccc3c1)NCC2 (stereo not drawn) [Compound 2, 1-β-naphthylmethyl-6,7-dihydroxy-1,2,3,4-tetrahydroisoquinoline] | – | inhibits the LPS/IFN-γ-induced iNOS mRNA expression in a concentration-dependent manner
